Measured values: publication PMC10780413, “Flavonoid Metabolites in Serum and Urine after the Ingestion of Selected Tropical Fruits” (Nutrients, 2024)
Read-outs that look alike come from different tables or passages of the source.

Assays:
[1] = type: in vivo, human; conditions: after guava, pineapple, pomelo
Procedure: Participants maintained a low-flavonoid diet (e.g., diet without vegetables, fruits, or chocolate) for two days and fasted for 8 h before the study to avoid any contribution from other foods containing flavonoids. Servings of fresh fruits of 200 g were given to the participants followed by 200 mL water. Beverages containing alcohol and caffeine were prohibited during the test period. Venous blood samples were collected before and 2, 4, 6, and 8 h after fruit ingestion. Serum was immediately prepared using centrifugation 233× g at 4 °C for 15 min, 200 mM ascorbic acid was added, and the samples were then stored at −20 °C until the analysis (within two weeks). Urine samples were collected at intervals of 0–4, 4–6, 6–8, 8–12, and 12–24 h in plastic bottles containing 70 mg of ascorbic acid per 100 mL of urine. The volume of urine sample was measured and then centrifuged at 233× g to remove the precipitate. […]
Flavonoid analysis was measured by a modified method of Biessaga [15] and Mullen et al. [16]. […]

[2] = Bioavailability estimated from total urinary excretion and flavonoid content in fruits; type: in vivo; conditions: human, 200 g, 200 g edible part, fruit content from ref 10, read-out: Estimated bioavailability (total urinary amount as % of content in fruit)
Procedure: Hollman et al. reported the bioavailability of quercetin from apples and pure quercetin-3-rutinose was only 30% compared to onions. Here, we assumed the flavonoids recovering in urine had passed the blood compartment. […] In the two-hundred grams of edible part, guava and pineapple contained about 6900 μg and 850 μg of quercetin, respectively. The total amount of urinary quercetin accounted for 13% and 80% of the quercetin content in the respective fruits. […] It should be noted that, the bioavailability of flavonoids may be underestimated because the biliary excretion of flavonoids was not taken into account. Moreover, the urinary methyl-conjugated favonoids were not quantified in this study.

[3] = plasma; cited from earlier work
[4] = test system: xanthine oxidase; design: method as in PMID 11118813; conditions: cited from earlier work
[5] = design: method as in PMID 14709621; conditions: in vitro study; cited from earlier work
[6] = Serum concentration of flavonoid metabolites after ingestion of 200 g fresh fruit (LC-MS/MS after enzyme hydrolysis); type: in vivo, human; conditions: despite presence in the selected fruits
From the text: Three groups of six healthy subjects (male and female) between 20 and 30 years of age, with a body mass index between 18 and 25, were recruited for this study. Each group of participant received one kind of fruit. They were not alcohol drinkers, smokers, drug users, nor pregnant. They had not taken any medications for at least one month prior to the experiment. All participants underwent health checks for their hematological and biochemical profiles. There was no clinical presentation of gastrointestinal diseases (peptic ulcer), kidney diseases, liver diseases or jaundice, heart diseases, asthma, or diabetes mellitus. Levels of blood glucose before and 4 h after fruit ingestion were monitored in all subjects. […]
Participants maintained a low-flavonoid diet (e.g., diet without vegetables, fruits, or chocolate) for two days and fasted for 8 h before the study to avoid any contribution from other foods containing flavonoids. […] The volume of urine sample was measured and then centrifuged at 233× g to remove the precipitate. […]
The conjugated metabolites of flavonoids, glucuronic acid, and sulfate conjugates were determined in the serum and urine after hydrolyzing with β-glucuronidase (EC 3.2.1.31, bovine liver type B-I, Sigma, St Louis, MO, USA) and aryl sulfatase (EC 3.1.6.1, Merk, Darmstadt, Germany), respectively, at 37 °C for 16 h. […]

[7] = cited from earlier work
[8] = test system: LPS-induced pulmonary injury; design: method as in PMID 37335159; conditions: in vitro and in vivo models; cited from earlier work
[9] = design: method as in PMID 11361045; conditions: cited from earlier work
[10] = design: method as in PMID 25212140; conditions: after ingestion of rooibos tea; cited from earlier work

O=c1c(O)c(-c2cc(O)c(O)c(O)c2)oc2cc(O)cc(O)c12 [Myricetin, myricetin]
Conjugated forms recovered in urine [1]: only detected in sulfate form | bioavailability ([2]; in vivo, from guava): 5% | bioavailability ([2]; in vivo, from pineapple): 10% | Share that is glucuronide in the 3′-position [3]: 20–40%

O=C(O)[C@H]1O[C@@H](Oc2cc(-c3oc4cc(O)cc(O)c4c(=O)c3O)ccc2O)[C@H](O)[C@@H](O)[C@@H]1O [3′-quercetin glucuronide]
Inhibitory effect on xanthine oxidase [4]: potent inhibitory effect

O=c1cc(-c2ccc(O)cc2)oc2cc(O)cc(O)c12 [apigenin]
Phase I metabolism, major metabolite [5]: forms luteolin as a major metabolite | Detection in serum or urine after fruit ingestion [6]: did not detect

C[C@@H]1O[C@@H](OC[C@H]2O[C@@H](Oc3c(-c4ccc(O)c(O)c4)oc4cc(O)cc(O)c4c3=O)[C@H](O)[C@@H](O)[C@@H]2O)[C@H](O)[C@H](O)[C@H]1O [quercetin-3-rutinose, reference compound]
Bioavailability of quercetin compared to onions ([7]; in vivo): 30%

O=C(O)[C@H]1O[C@@H](Oc2ccc(-c3oc4cc(O)cc(O)c4c(=O)c3O)cc2O)[C@H](O)[C@@H](O)[C@@H]1O [4′-quercetin glucuronide]
Inhibitory effect on xanthine oxidase [4]: potent inhibitory effect

O=C(O)[C@H]1O[C@@H](Oc2c(-c3ccc(O)c(O)c3)oc3cc(O)cc(O)c3c2=O)[C@H](O)[C@@H](O)[C@@H]1O [quercetin-3-glucuronide]
Activity in LPS-induced pulmonary injury [8]: exerted antioxidant and anti-inflammatory activity | Inhibitory effect on xanthine oxidase [4]: not active

COc1ccc([C@@H]2CC(=O)c3c(O)cc(O)cc3O2)cc1O [hesperetin]
Detection in serum or urine after fruit ingestion [6]: did not detect

O=c1c(O)c(-c2ccc(O)c(O)c2)oc2cc(O)cc(O)c12 [Quercetin, quercetin]
Conjugated forms recovered in urine [1]: found in both conjugated metabolites | bioavailability ([2]; urine, oral, from guava): 13% | bioavailability ([2]; urine, oral, from pineapple): 80% | Share that is glucuronide in the 3′-position [3]: 20–40% | Bioavailability of quercetin compared to onions ([7]; from apples): 30% | Tmax of quercetin ([9]; after ingesting buckwheat tea): 4.3 h | Tmax of quercetin ([9]; after ingesting quercetin-3-rutioside): 6.9 h | Tmax of quercetin ([9]; after single ingestion of onion): 0.7 h | Tmax of quercetin ([9]; after single ingestion of quercetin-4’-glucoside): 0.7 h

O=c1cc(-c2ccc(O)c(O)c2)oc2cc(O)cc(O)c12 [Luteolin, luteolin]
bioavailability ([2]; urine, oral, from guava): 5% | bioavailability ([2]; urine, oral, from pomelo): 5% | Tmax [10]: 1.5 to 3 h

O=c1c(O)c(-c2ccc(O)cc2)oc2cc(O)cc(O)c12 [Kaempferol, kaempferol]
Conjugated forms recovered in urine [1]: found in both conjugated metabolites | bioavailability ([2]; urine, oral, from pineapple): 10% | bioavailability ([2]; urine, oral, from pomelo): 1% | Share that is glucuronide in the 3′-position [3]: 20–40%
